{"source": "patent US20040028714A1", "about": "“Composition having insect repellent characteristics” (priority 2000, published 2004)", "key": {"[1]": {"system": "German cockroaches (Blatella Germanica)", "test": "Cockroach repellency in tray with half-treated vinyl, compared with DEET and N-methyl-neodecanamide (Example 3)", "format": "in vivo", "conditions": "20 mg/m^2 on vinyl; for Number of Cockroaches present, Treated Section / Number of Cockroaches present, Untreated Section / Number of Cockroaches, Dead: single replicates (n = 50); for Number of Cockroaches present, Treated Section, Total / Number of Cockroaches present, Untreated Section, Total / Number of Cockroaches, Dead, Total: total of 4 replicates (200); for Percentage Dead / Percentage Present, Treated Section / Percentage Present, Untreated Section: cockroaches", "method": "The effectiveness of compound 2 (example 1) as an insect repellent was determined using German cockroaches exposed to a formica surface partially treated/partially un-treated, and was directly compared to the repellency of the well known insect repellents DEET (N,N-diethyl-meta-toluamide) and N-methyl-neodecanamide. The study was conducted in an air conditioned laboratory at a temperature of 22°±2° C. under a normal day/night cycle, using German cockroaches (Blatella Germanica) of mixed sex and age. The study was conducted over a 7 days period and the repellent effectiveness was assessed 1, 3, 5 and 7 days after cockroach introduction. Each tray used in the study consisted of a melamine square tray of sides 1.8m×1.8m and 20 cm high walls. The upper part of the wall was provided with electrical strip, which prevented cockroaches escaping. A square of vinyl 90 cm×180 cm was treated with the test compound at 20 mg/m^2. This was achieved by soaking a paper wipe (Rag on a Roll, ca. 20 cm×20 cm) in a solution of the test compound in ethanol, squeezing out the excess liquid and wiping over the surface to give the required coverage. This was checked by weighing the cloth after application. The surface was allowed to dry. The treated vinyl square was placed in one half of the tray. A similar untreated square was placed in the other half of the tray. This square was treated with ethanol alone. Two sheets of formica (30 cm×30 cm) were placed at one corner of each tray, one on the treated surface and one on the untreated surface. This acted as a cockroach harbourage. The formica sheet to be used in the treated section was treated at the same rate as the treated formica. The formica was placed on two 1 cm high bottle tops to allow cockroaches access under the formica. 50 German cockroaches were added (15 adults and 35 nymphs) to the middle of the tray. No food and water was supplied for these cockroaches. At 1, 2, 3 and 7 days after cockroach introduction the number of cockroaches under each harbourage was counted. After each count the harbourage position was change to avoid the possibility of habituation to one location, the harbourages were replaced and new cockroaches were added to replace any dead cockroaches. The above was repeated 3 times to provide a total of 4 replicates."}, "[2]": {"system": "Casemaking Clothes Moths (Tinea pellionella)", "test": "Adult clothes moth repellency on treated woolen cloth (Example 5)", "format": "in vivo", "conditions": "fabric soaked in 20 g/L in ethanol, 2 days after moth introduction", "method": "The effectiveness of compound 2 (example 1) to reduce the presence of cloth moths on woolen cloth was determined and was directly compared to the repellency of the well known moth repellents Citronellol and Farnesol.\nThe study was conducted in an air conditioned laboratory at a temperature of 22°±2° C. under a normal day/night cycle, using Casemaking Clothes Moths (Tinea pellionella) of mixed sex and age. The study is conducted over a 5 days period and the repellent effectiveness was assessed as follows:\nAdults—2 days after insect introduction\nA 10 cm×10 cm square of black woolen fabric free of bactericide) was soaked in a solution of the candidate repellent in ethanol at 20 g/L, squeezed and allowed to dry. The woollen square was placed in a small box (5 cm×10 cm×10 cm) which was open at one end to allow entry of adult clothes moth.\nA similar square of fabric treated with ethanol (control) was placed in another box of the same size.\nThese two boxes were placed in an aquarium and 50 mixed sex adult moths were added. These were provided with food and water and left for 5 days.\nAt the end of 2 days the number of adult moths in each box was counted.\nThe above was repeated 3 times to provide 4 replicates."}, "[3]": {"conditions": "1 day after cockroach introduction"}, "[4]": {"conditions": "2 days after cockroach introduction"}, "[5]": {"conditions": "3 days after cockroach introduction"}, "[6]": {"conditions": "7 days after cockroach introduction"}, "[7]": {"conditions": "share of moths found in the two boxes"}}, "note": "Where “and” joins values, the source holds several entries; their conditions need not be identical. Equal entries are not always repeated."}
{"smiles": "CCNC(=O)C1CC(C)CCC1C(C)C", "note": "(stereo not drawn) [Compound 2, N-ethyl-p-menthane-3-carboxamide]", "values": [{"measurement": "cockroach repellency (in words)", "setting": "[1]; over 7 days", "result": "excellent repellency"}, {"measurement": "Number of Cockroaches present, Treated Section", "setting": "[1]; [3]", "result": "0 (3×) and 3"}, {"measurement": "Number of Cockroaches present, Untreated Section", "setting": "[1]; [3]", "result": "50 (2×) and 49 and 47"}, {"measurement": "Number of Cockroaches, Dead", "setting": "[1]; [3]", "result": "0 (3×) and 1"}, {"measurement": "Number of Cockroaches present, Treated Section, Total", "setting": "[1]; [3]", "result": 3}, {"measurement": "Number of Cockroaches present, Untreated Section, Total", "setting": "[1]; [3]", "result": 196}, {"measurement": "Number of Cockroaches, Dead, Total", "setting": "[1]; [3]", "result": 1}, {"measurement": "Number of Cockroaches present, Treated Section", "setting": "[1]; [4]", "result": "0 (3×) and 1"}, {"measurement": "Number of Cockroaches present, Untreated Section", "setting": "[1]; [4]", "result": "50 (2×) and 49 (2×)"}, {"measurement": "Number of Cockroaches, Dead", "setting": "[1]; [4]", "result": "0 (3×) and 1"}, {"measurement": "Number of Cockroaches present, Treated Section, Total", "setting": "[1]; [4]", "result": 1}, {"measurement": "Number of Cockroaches present, Untreated Section, Total", "setting": "[1]; [4]", "result": 198}, {"measurement": "Number of Cockroaches, Dead, Total", "setting": "[1]; [4]", "result": 1}, {"measurement": "Number of Cockroaches present, Treated Section", "setting": "[1]; [5]", "result": "6 and 3 and 0 (2×)"}, {"measurement": "Number of Cockroaches present, Untreated Section", "setting": "[1]; [5]", "result": "44 and 47 and 50 and 49"}, {"measurement": "Number of Cockroaches, Dead", "setting": "[1]; [5]", "result": "0 (3×) and 1"}, {"measurement": "Number of Cockroaches present, Treated Section, Total", "setting": "[1]; [5]", "result": 9}, {"measurement": "Number of Cockroaches present, Untreated Section, Total", "setting": "[1]; [5]", "result": 190}, {"measurement": "Number of Cockroaches, Dead, Total", "setting": "[1]; [5]", "result": 1}, {"measurement": "Number of Cockroaches present, Treated Section", "setting": "[1]; [6]", "result": "7 and 19 and 3 and 11"}, {"measurement": "Number of Cockroaches present, Untreated Section", "setting": "[1]; [6]", "result": "43 and 30 and 47 and 38"}, {"measurement": "Number of Cockroaches, Dead", "setting": "[1]; [6]", "result": "0 (2×) and 1 (2×)"}, {"measurement": "Number of Cockroaches present, Treated Section, Total", "setting": "[1]; [6]", "result": 40}, {"measurement": "Number of Cockroaches present, Untreated Section, Total", "setting": "[1]; [6]", "result": 158}, {"measurement": "Number of Cockroaches, Dead, Total", "setting": "[1]; [6]", "result": 2}, {"measurement": "Percentage Dead", "setting": "[1]; 1 day after treatment", "result": 0.5, "unit": "%"}, {"measurement": "Percentage Present, Treated Section", "setting": "[1]; 1 day after treatment", "result": 1.5, "unit": "%"}, {"measurement": "Percentage Present, Untreated Section", "setting": "[1]; 1 day after treatment", "result": 98.0, "unit": "%"}, {"measurement": "Percentage Dead", "setting": "[1]; 2 days after treatment", "result": 0.5, "unit": "%"}, {"measurement": "Percentage Present, Treated Section", "setting": "[1]; 2 days after treatment", "result": 0.5, "unit": "%"}, {"measurement": "Percentage Present, Untreated Section", "setting": "[1]; 2 days after treatment", "result": 99.0, "unit": "%"}, {"measurement": "Percentage Dead", "setting": "[1]; 3 days after treatment", "result": 0.5, "unit": "%"}, {"measurement": "Percentage Present, Untreated Section", "setting": "[1]; 3 days after treatment", "result": 95.0, "unit": "%"}, {"measurement": "Percentage Dead", "setting": "[1]; 7 days after treatment", "result": 1.0, "unit": "%"}, {"measurement": "Percentage Present, Treated Section", "setting": "[1]; 7 days after treatment", "result": 20, "unit": "%"}, {"measurement": "Percentage Present, Untreated Section", "setting": "[1]; 7 days after treatment", "result": 79.0, "unit": "%"}, {"measurement": "Moths Present, Treated Section, Total (%)", "setting": "[2]; [7]", "result": "(29.4%)"}, {"measurement": "Moths Present, Untreated Section, Total (%)", "setting": "[2]; [7]", "result": "(70.6%)"}, {"measurement": "The Number of Moths Present, Treated Section", "setting": "[2]; single replicates (n = 50)", "result": "6 and 7 and 11 and 8"}, {"measurement": "The Number of Moths Present, Untreated Section", "setting": "[2]; single replicates (n = 50)", "result": "9 and 19 and 27 and 22"}, {"measurement": "The Number of Moths Present, Treated Section, Total", "setting": "[2]; total of 4 replicates", "result": 32}, {"measurement": "The Number of Moths Present, Untreated Section, Total", "setting": "[2]; total of 4 replicates", "result": 77}]}
